Measured values as given in patent US12168003B2, “Selective inhibition of T follicular helper cells for treatment of autoimmune disorders” (priority 2019, dated 2024).

Columns and labels:
[1] = test system: TH17-differentiated 2D2 T cells; experiment: Passive EAE with TH17-differentiated 2D2 T cells pre-treated with 4EGI-1; assay type: in vivo, mouse; settings: 2D2 T cells pre-treated with 20 μM 4EGI-1 for 1 h in vitro
Experimental: TH17 2D2 T cells were removed from activation and treated with vehicle or 20 μM 4EGI-1 for 1 h at 37° C. in vitro prior to transfer of 9.3×10^6 2 D2 T cells i.p. per recipient. Mice were given 200 ng pertussis toxin i.p. […] following T cell injection. Animals were monitored daily for 35 days and scored on a scale of 0-5 as described above. At day 35, TFH-like (ICOS^high) Vα3.2 cells were identified from the spinal cord.

pre-existing TFH cells = settings: 75 mg/kg, mice (Sekiyama et al.); cited from earlier work
[2] = test system: CD4+ T cells from mice immunized with OVA/Alum; experiment: In vitro treatment of mouse splenocytes with 4EGI-1 and SUnSET assay; assay type: cell-based
Experimental: Mice were immunized with 100 μg OVA/Alum and 7 days following, spleens were harvested and single-cell suspensions were generated. Splenocytes were incubated in mouse T cell media (detailed in Silencing of eIF4E in OT2 T cells by lentivirus transduction) with 0-25 μM 4EGI-1 for 4 hours at 37° C. Cells were stained with a live/dead viability marker and then for extracellular expression of CD4, CXCR5, PD-1, or ICOS or intranuclear expression of BCL6. For the SuNSET assay, cells from above were incubated 37° C. with 10 μg/mL puromycin for 10 minutes. Control samples were incubated with puromycin and 100 μg/mL cycloheximide. Cells were incubated with a live/dead viability marker and extracellular stain prior to fixation and permeabilization (BD Biosciences Fixation/Permeabilization Solution) and intracellular staining with anti-puromycin followed by anti-mouse IgG2a antibody conjugated to Alexa Fluor 488.

TH2 cells and Tregs = experiment: A. fumigatus repeat sensitization airway disease model; assay type: in vivo, mouse
Experimental: A. fumigatus Fresenius (ATCC 13073) was grown for 7 days on potato dextrose agar plates (Thermo Scientific) at 37° C. Conidia were harvested by agitation in a flask with sterile PBS+0.1% Tween-20 and filtered through a 40 μm nylon mesh. Mice were intratracheally sensitized with 1.8×10^6 conidia in 50 μL of PBS on days 0, 7, and 11. On day 0 through 17 mice were treated daily with i.p. 25 mg/kg 4EGI-1 or vehicle. On day 18, mice were euthanized and lungs were collected along with mediastinal lymph node (MedLN) and blood. Serum was obtained and stored as described above.
Spleens, draining lymph nodes, and brains were dissociated with the plunger-end of a syringe and passed through a 70 μm nylon filter. Splenocytes were subject to RBC lysis with ACK (Ammonium-Chloride-Potassium). Ears were subject to mechanical dissociation with scissors prior to incubation in 1 mL PBS in a 48-well plate with 100 μg/mL Liberase TL and 20 μg/mL DNase I for 1.5 hours at 37° C. Following incubation, cells were further dissociated by passing through a syringe, quenched with PBS+2% FCS, and filtered through a 70 μm nylon filter. Lungs were mechanically dissociated with a razor blade and incubated in a 6 cm dish with 5 mLs RPMI containing 250 μg/mL collagenase, 50 μg/mL Liberase TL, 1 mg/mL hyaluronidase, and 200 μg/mL DNase I for 30 minutes. Following incubation, cells quenched with PBS+2% FCS, and filtered through a 70 μm nylon filter. Ear and lung cells were subject to lymphocyte isolation using a gradient (Lymphocyte Separation Medium; Cellgro). Vertebral columns were flushed with PBS through a 19-gauge needle to remove intact spinal cords. Spinal cords were subject to mechanical dissociation with scissors and incubation in 1 mL PBS with 200 μg/mL DNase I and 50 μg/mL Liberase TL for 30 minutes at 37° C. Following incubation, cells were quenched with PBS+2% FCS and filtered through a 70 μm nylon filter.
For quantification of OVA-specific IgG1, high-binding 96-well plates (Costar) were coated with 10 μg/mL OVA protein. For S. aureus-specific IgG1, plates were coated with heat-killed S. aureus (heat-killed at 80° C. for 30 min). For total IgE, plates were coated with 2 μg/mL rat anti-mouse IgE (Southern Biotech). Following overnight incubation at 4° C., plates were blocked with 1% BSA for 30 min at 37° C. After blocking, serum (diluted 1/20 initially then 1/2 down the plate) was incubated at 37° C. for 2 hours, plates were washed 3 times in PBS and then incubated with 1:1000 anti-mouse IgG1-HRP (Southern Biotech) or anti-mouse IgE-HRP (Southern Biotech) for 1 hour at 37° C. Plates were washed 3 times in PBS and incubated with TMB substrate. Following development, TMB Stop Solution (BioLegend®) was added and plates were read at […].
Lungs fixed in 4% PFA (ThermoFisher) and spinal cords fixed in 10% buffered formalin (Leica) were incubated overnight and moved to 70% ethanol prior to ethanol dehydration, xylene incubation, and paraffin embedding. Five-micron thick sections of lung were stained with hematoxylin and eosin (H&E), Periodic Acid-Schiff (PAS), or Masson's Trichrome Stain (MTS). Spinal cords were stained with H&E or Luxol fast blue and hematoxylin (LFB-H). Staining was visualized with an EVOS FLc microscope.

[3] = test system: human lymph node CD4+ CD45RO+ T cells; experiment: In vitro treatment of human lymph node cells with 4EGI-1; assay type: cell-based; settings: 4EGI-1 overnight, three patients
Experimental: Discarded, deidentified, reactive, but non-malignant human lymph node single cell suspensions were obtained. Presence of TFH cells was confirmed by identification of CD4^+ CD45RO^+ T cells that are PD1^+ CXCR5^+ BCL6^+ and ICOS^+. Lymph node suspensions were incubated overnight at 37° C. in X-VIVO media (Lonza) containing 5% human AB serum (Sigma) and Glutamax with 0-25 μM 4EGI-1. Cells were then stained with a live/dead viability marker and then for extracellular expression of human CD4, CD45RO, CXCR5, PD-1, or ICOS or intranuclear expression of BCL6. Expression of markers was normalized to % of control (0 μM 4EGI-1) to allow for combined statistical analysis of all 3 patients. Antibody clones and dilutions used to identify these populations are detailed in Table 2.

[4] = 4EGI-1 up to 25 μM, 4 hours, mouse CD4+ T cells
[5] = 10-25 μM 4EGI-1, 4 hours, mouse CD4+ lymphocytes in culture
[6] = 25 mg/kg daily i.p., lung sections
[7] = mediastinal lymph nodes, day 18

Compound: O=C(O)C(Cc1ccccc1[N+](=O)[O-])=NNc1nc(-c2ccc(Cl)c(Cl)c2)cs1 (mixture of isomers) [4EGI-1]
- TFH-like 2D2 T cells (ICOShigh) in the spinal cord [1]: reduced by half
- development of passive EAE disease in recipient mice [1]: did not develop disease
- safety of the dose (pre-existing TFH cells): within its safety range
- levels of CXCR5 protein [2, 4]: unchanged
- levels of ICOS protein [2, 4]: unchanged
- levels of PD-1 protein [2, 4]: unchanged
- reduction of BCL6 protein levels [2, 4]: ~3 fold
- cell viability [2, 5]: without reducing
- reduction of protein synthesis (SUnSET) [2, 5]: 3-4 fold
- levels of pulmonary TH2 cells (GATA3+ or IL-13+) (TH2 cells and Tregs; 25 mg/kg daily i.p., day 18): no effect
- levels of pulmonary Tregs (Foxp3+) (TH2 cells and Tregs; 25 mg/kg daily i.p., day 18): no effect
- levels of pulmonary eosinophils (TH2 cells and Tregs; 25 mg/kg daily i.p., day 18): no effect
- airway inflammation (TH2 cells and Tregs; [6]): no effect
- mucin production (TH2 cells and Tregs; [6]): no effect
- formation of GC B cells in draining lymph nodes (TH2 cells and Tregs; [7]): strongly reduced
- formation of TFH cells in draining lymph nodes (TH2 cells and Tregs; [7]): strongly reduced
- secretion of class-switched immunoglobulins (TH2 cells and Tregs; serum total IgE, day 18): strongly reduced
- levels of BCL6 protein ([3]; 0-30 μM / 0-25 μM): rapidly reduced
- cell viability [3]: no effect
